Laboratory results as given in patent publication US20180071317A1, “USE OF AGENTS THAT ALTER THE PERITUMORAL ENVIRONMENT FOR THE TREATMENT OF CANCER” (SERVICIO ANDALUZ DE SALUD, priority 2011, published 2018).

Key:
[1] = tested on: fibroblasts (PHF) co-cultivated with tumor cell carcinoma of urinary bladder (5637); assay: Marker expression (IHC) in PHF co-cultured with 5637 tumor cells; type: cell-based, human; conditions: co-culture with 5637; SP 1 μM; 48 h
Method: (§1) All cultures were maintained 48 hours, following which the same cells were included in paraffin blocks for subsequent analysis of the expression of different markers by immunohistochemistry (see Example 1). […] All experiments were carried out sixfold. Analyzed markers in fibroblast cells (stromal cells) were: TGF-α, TGF-β1, TGF-β2, TGF-β3, SPARC, MMP-3, MMP-7, MMP-9, MMP-11, MMP-13 and MMP-14.

[2] = tested on: leukocyte cells (mono and polymorphonuclear) in co-culture with cells isolated from primary human tumors; assay: Marker expression (IHC) in leukocytes co-cultured with primary human tumor cells (colon, pancreatic, lung carcinoma, glioma, melanoma); type: cell-based; conditions: SP 1 μM;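 further: tumor cells and leukocytes came from the same patients, co-culture contents were paraffin-embedded for immunohistochemistry with antibodies to TGF-β2 or NF-kB, leukocytes cultured alone served as control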
Method: To check that the interaction of the human primary tumor cells with cells of the immune/inflammatory (mono and polymorphonuclear leukocytes) cells, stimulates the secretion of substances of importance for survival and tumor progression, cultures were carried out using sets of immune cells/inflammatory (mono and polymorphonuclear leukocytes) with tumor cells obtained directly from primary human tumors of the same patients.
The same method described in Example 7 and 9 was used to obtain tumor cells from primary human tumors. Similarly cultured immune cells/inflammatory (mono and polymorphonuclear leukocytes) were used as control and secondly, cultured tumor cells isolated from patients in the presence of immune cells/inflammatory (mono and polymorphonuclear leukocytes).
Then, paraffin blocks were prepared with the contents of each of the groups mentioned previously for expression studies using immunohistochemistry. On this occasion, in order to identify the secretion of substances with importance for the survival and progression of tumor the following markers were analyzed: TGF-β2 (SAB4502956) and NF-kB (SAB4501992) using specific antibodies against them. All antibodies used were rabbit polyclonal antibodies obtained from Sigma Aldrich and were used at a concentration of 1/1000. Immunohistochemical techniques were performed and evaluated as described in previous examples.

[3] = tested on: fibroblasts (PHF) co-cultured with human choriocarcinoma tumor cells (AC-1M32); assay: Marker expression (IHC) in PHF co-cultured with AC-1M32 tumor cells; type: cell-based; conditions: co-culture with AC-1M32; SP 1 μM; 48 h;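 further: Read-out is the percentage of PHF fibroblasts positive for each marker, with cells grown in fresh healthy-donor blood plasma, six replicates, reference being fibroblasts cultured alone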
Method: as §1

[4] = tested on: fibroblasts (PHF) co-cultured with human melanoma tumor cells (MEL-HO1); assay: Marker expression (IHC) in PHF co-cultured with MEL-HO1 tumor cells; type: cell-based; conditions: PHF co-cultured with MEL-HO1 + SP;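 further: values are the percentage of fibroblasts positive for each marker, with cultures grown in fresh healthy-donor blood plasma and each experiment run six times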
Method: as §1

polymorphonuclear cells = assay: Marker expression (immunohistochemistry) in polymorphonuclear blood cells with SP alone or with NK1 antagonists; type: cell-based, human; conditions: SP 1 μM; 48 h
From the text: Briefly, heparinized blood from healthy donors was centrifuged so as to separate the various components thereof. Red blood cells remained at the bottom of the tube. Above them was a small white layer composed of the white blood cells and above, on top of the tube, the blood plasma. The layer of white cells was distributed in a culture plate of 24 wells by adding in each the same concentration of blood plasma from the same donor, supplemented with 1% antibiotic-antimycotic (Invitrogen). In each well, approximately 1000 cells (PHF) skin from the dermis were further added, obtained as previously described in Example 2. […] After 48 hours of incubation, cells were collected and embedded in paraffin for expression analysis by immunohistochemical techniques (as described in Example 1).
The expression of TGF molecular markers (anti-TGF 2, SAB4502956) and NF-kB (anti-NF-kB, SAB4501992) using specific antibodies against them were analyzed. All antibodies used were rabbit polyclonal antibodies obtained from Sigma Aldrich and were used at a concentration of 1/1000. All experiments were carried out sixfold.

[5] = co-culture with cells isolated from colon carcinoma
[6] = co-culture with cells isolated from glioma
[7] = co-culture with cells isolated from lung carcinoma
[8] = co-culture with cells isolated from melanoma
[9] = co-culture with cells isolated from pancreatic carcinoma

Compound: CSCC[C@H](NC(=O)[C@H](CC(C)C)NC(=O)CNC(=O)[C@H](Cc1ccccc1)NC(=O)[C@H](Cc1ccccc1)NC(=O)[C@H](CCC(N)=O)NC(=O)[C@H](CCC(N)=O)NC(=O)[C@@H]1CCCN1C(=O)[C@H](CCCCN)NC(=O)[C@@H]1CCCN1C(=O)[C@@H](N)CCCNC(=N)N)C(N)=O [SP]
- PHF cells expressing MMP-3 [1]: 44.5 ± 2.7%
- PHF cells expressing MMP-7 [1]: 55.4 ± 3.8%
- PHF cells expressing MMP-9 [1]: 53.3 ± 4.4%
- PHF cells expressing MMP-11 [1]: 26.5 ± 1.8%
- PHF cells expressing MMP-13 [1]: 44.5 ± 2.5%
- PHF cells expressing MMP-14 [1]: 47.1 ± 3.5%
- PHF cells expressing SPARC [1]: 47.4 ± 2.2%
- PHF cells expressing TGF-α [1]: 42.4 ± 1.1%
- PHF cells expressing TGF-β1 [1]: 43.6 ± 1.1%
- PHF cells expressing TGF-β2 [1]: 44.3 ± 1.1%
- PHF cells expressing TGF-β3 [1]: 42.3 ± 1.2%
- Percentage of mononuclear leukocytes cells which expressed NF-kB [2, 5]: 47.5 ± 4.6%
- Percentage of mononuclear leukocytes cells which expressed TGF-β [2, 5]: 36.5 ± 3.5%
- Percentage of polymorphonuclear leukocytes cells which expressed NF-kB [2, 5]: 36.6 ± 4.7%
- Percentage of polymorphonuclear leukocytes cells which expressed TGF-β [2, 5]: 45.8 ± 3.5%
- Percentage of mononuclear leukocytes cells expressing NF-kB [2, 6]: 41.6 ± 4.1%
- Percentage of mononuclear leukocytes cells expressing TGF-β [2, 6]: 41.7 ± 3.4%
- Percentage of polymorphonuclear leukocytes cells expressing NF-kB [2, 6]: 39.4 ± 4.2%
- Percentage of polymorphonuclear leukocytes cells expressing TGF-β [2, 6]: 39.7 ± 3.3%
- Percentage of mononuclear leukocytes cells which expressed NF-kB [2, 7]: 41.6 ± 4.2%
- Percentage of mononuclear leukocytes cells which expressed TGF-β [2, 7]: 42.7 ± 3.3%
- Percentage of polymorphonuclear leukocytes cells which expressed NF-kB [2, 7]: 35.5 ± 4.2%
- Percentage of polymorphonuclear leukocytes cells which expressed TGF-β [2, 7]: 38.7 ± 3.3%
- Percentage of mononuclear leukocytes cells which expressed NF-kB [2, 8]: 51.7 ± 5.3%
- Percentage of mononuclear leukocytes cells which expressed TGF-β [2, 8]: 49.6 ± 4.2%
- Percentage of polymorphonuclear leukocytes cells which expressed NF-kB [2, 8]: 56.6 ± 4.6%
- Percentage of polymorphonuclear leukocytes cells which expressed TGF-β [2, 8]: 54.5 ± 3.5%
- Percentage of mononuclear leukocytes cells which expressed TGF-β [2, 9]: 39.5 ± 4.5%
- Percentage of polymorphonuclear leukocytes cells which expressed NF-kB [2, 9]: 35.4 ± 4.2%
- Percentage of polymorphonuclear leukocytes cells which expressed TGF-β [2, 9]: 36.5 ± 3.1%
- PHF cells expressing MMP-3 [3]: 45.4 ± 2.7%
- PHF cells expressing MMP-7 [3]: 57.1 ± 3.8%
- PHF cells expressing MMP-9 [3]: 56.3 ± 2.4%
- PHF cells expressing MMP-11 [3]: 28.4 ± 2.8%
- PHF cells expressing MMP-13 [3]: 47 ± 3.7%
- PHF cells expressing MMP-14 [3]: 51.2 ± 4.5%
- PHF cells expressing SPARC [3]: 46 ± 3.1%
- PHF cells expressing TGF-α [3]: 41.4 ± 1.1%
- PHF cells expressing TGF-β1 [3]: 36.5 ± 2.1%
- PHF cells expressing TGF-β2 [3]: 53.5 ± 3.1%
- PHF cells expressing TGF-β3 [3]: 46 ± 3%
- cells expressing MMP-3 [4]: 44.5 ± 4.7%
- cells expressing MMP-7 [4]: 55.5 ± 3.8%
- cells expressing MMP-9 [4]: 53.3 ± 2.4%
- cells expressing MMP-11 [4]: 24.4 ± 3.8%
- cells expressing MMP-13 [4]: 46.1 ± 3.5%
- cells expressing MMP-14 [4]: 46.2 ± 3.5%
- cells expressing SPARC [4]: 44.5 ± 1.4%
- cells expressing TGF-α [4]: 42.4 ± 3.2%
- cells expressing TGF-β1 [4]: 42.5 ± 2.1%
- cells expressing TGF-β2 [4]: 44.5 ± 1.9%
- cells expressing TGF-β3 [4]: 43.5 ± 2.6%
- polymorphonuclear cells expressing NF-kB (polymorphonuclear cells): 17.5 ± 1.6%
- polymorphonuclear cells expressing TGF-β (polymorphonuclear cells): 36.8 ± 2.1%
